Source: patent publication US20220082578A1, “METHOD OF Q[…]'S MAIN METABOLITES, PSILOCIN AND 4-HYDROXYINDOLE-3-ACETIC ACID, IN HUMAN PLASMA” (Universitätsspital Basel, priority 2020, published 2022)
Where two headings read alike, the source gives them in different places.

Legend:
[1] = Pharmacokinetics of psilocin and 4-HIAA in plasma of healthy volunteers after a single oral dose of 25 mg psilocybin (LC-MS/MS); format: in vivo, human; conditions: for Cmax / Tmax / AUC(0-t) / half-life: human; for Cmax / Tmax: po, 25 mg; for AUCLAST relative to AUCLAST of psilocin: 0-420 min
Protocol: To examine the application of the developed method, psilocin and 4-HIAA concentrations were quantified in plasma samples of three healthy volunteers receiving a single oral dose of 25 mg psilocybin. This is a moderate to high dose currently used in clinical phase 2-3 studies. The study was approved by the Ethical Committee of Northwestern and Central Switzerland (EKNZ, BASEC ID: 2019-00223), registered at ClinicalTrials.gov (ID: NCT03912974), and conducted in accordance with the Declaration of Helsinki and International Conference on Harmonization Guidelines in Good Clinical Practice. All volunteers provided written informed consent prior to study participation.
To establish concentration time profiles, blood samples were collected in lithium heparin coated tubes at the following time points: 2 hours before and 0, 15, 30, 45, 60, 90, 120, 150, 180, 240, 300, 360, and 420 minutes after treatment. Blood samples were centrifuged for 10 minutes at 3000 rpm to obtain plasma, which was transferred into cryotubes. All samples were stored −80° C. until analysis.
Study, calibration, and QC samples were processed as described before. In addition, the total amount of glucuronide conjugated psilocin and 4-HIAA was determined similar to the protocol of Kamata et al. (2006). In brief, 5 μl of Escherichia coli deglucuronidase (3000 units/ml in water) was mixed with 50 μl plasma sample. An aliquot of 100 μl acetic acid buffer (0.1 M) was added to the mixture. The samples were incubated for 3 hours at 37° C. in a thermomixer (Eppendorf, Hamburg, Germany). Enzymatic reaction was terminated, and samples extracted by the addition of 150 μl methanol. The samples were vortex mixed and centrifuged as outlined above.
For each analytical run, a calibration line was analysed at the beginning and at the end of the measurements. In between, the study samples of the three volunteers were measured as well as triplicates of LLOQ, QCLOW, QCMID, and QCHIGH samples. Samples with a concentration below the LLOQ were marked as blq (below limit of quantification) and samples with concentrations above the ULOQ were diluted with blank plasma into the calibration range.
The concentration-time profile was plotted and the maximal plasma concentration (Cmax) and time to reach it (Tmax) were obtained graphically from the plots. Pharmacokinetic parameters were calculated using non-compartmental methods in Phoenix WinNonlin 8.3 (Certara, N.J., USA). The area under the plasma concentration time profile was calculated by using the linear trapezoidal rule from 0-420 min (AUCLAST). The elimination half-life (t1/2) was calculated by the equation
where the elimination rate constant (λ) was the slope of log(C(t)) versus t determined in the terminal elimination phase.

[2] = Stability of psilocin and 4-HIAA in plasma under different storage conditions; format: physicochemical; conditions: human plasma, frozen at −20° C., thawed at room temperature
Protocol: The stability of psilocin and 4-HIAA in plasma were investigated under different storage conditions. Seven replicates of LLOQ, QCLOW, QCMID, and QCHIGH samples were stored for 8 hours at room temperature (bench-top stability) and for 1 month at −20° C. (one-month stability). Moreover, the stability was assessed after three consecutive freeze and thaw cycles (freeze/thaw stability), thereby freezing the QC samples at −20° C. for at least 24 hours and thawing them afterwards at room temperature. The concentration of those stability test samples was calculated based on a freshly prepared calibration line. Samples were designated to be stable if the accuracy was between 85-115% (LLOQ: 80-120%) and the precision ≤15% (LLOQ: ≤20%).

[3] = cited from earlier work
[4] = plasma, average of three healthy volunteers, oral 25 mg psilocybin, read-out: maximal plasma level (Cmax)
[5] = plasma, plasma, three healthy volunteers, oral dose of 25 mg psilocybin, read-out: Cmax ± SD
[6] = plasma, three healthy volunteers, oral dose of 25 mg psilocybin
[7] = area under the plasma concentration time curve until 7 h post treatment, oral 25 mg psilocybin
[8] = after oral administration of psilocybin

| SMILES | Cmax [1, 4] [ng/mL] | Cmax [1, 5] [ng/mL] | Tmax [1, 6] [h] | AUC(0-t) [1, 7] [ng·h/mL] | half-life [1, 6] [h] | AUCLAST relative to AUCLAST of psilocin ([1]; oral 25 mg psilocybin) | Tmax ± SD [1, 6] | accuracy of QC samples after three freeze and thaw cycles [2] | AUClast [1, 7] [ng·min/mL] | maximal plasma level (Cmax) ([1]; average of three healthy volunteers, oral 25 mg psilocybin) [ng/mL] | t1/2 [1, 6] [h] | Tmax ± SD ([1]; plasma, three healthy volunteers, oral dose of 25 mg psilocybin, listed as Psilocin-glucuronide) [h] | plasma concentration (not detectable at limit of detection) ([1]; plasma of volunteers who received 25 mg psilocybin) [ng/mL] | glucuronide conjugation in plasma ([1]; samples reanalysed after deglucuronidation with Escherichia coli glucuronidase) | elimination half-life [3, 8] [h] | peak concentrations in plasma [3, 8] [ng/mL] | time to peak plasma concentration [3, 8] [h] | fraction excreted from body as psilocin-O-glucuronide ([3]; in vivo) [%] |
| --- | --- | --- | --- | --- | --- | --- | --- | --- | --- | --- | --- | --- | --- | --- | --- | --- | --- | --- |
| O=C(O)Cc1c[nH]c2cccc(O)c12 [4-HIAA, 4-hydroxyindole-3-acetic acid] | 137 | 137 ± 22 | 2 to 2.33 | 372 | 2.32 | about 5 fold | 2 ± 1 h | 100-109% | – | – | – | – | – | – | – | – | – | – |
| CN(C)CCc1c[nH]c2cccc(O[C@@H]3O[C@H](C(=O)O)[C@@H](O)[C@H](O)[C@H]3O)c12 [psilocin-glucuronide, psilocin-O-glucuronide] | – | – | – | – | – | 5-6 fold | roughly 220 min | – | 20631 | 78.3 | 3.58 ± 1.2 | 3.67 ± 1.53 | – | – | – | – | – | – |
| OCCc1c[nH]c2cccc(O)c12 [4-HTP, 4-hydroxytryptophol] | – | – | – | – | – | – | – | – | – | – | – | – | < 2.5 | – | – | – | – | – |
| CN(C)CCc1c[nH]c2cccc(O)c12 [psilocin] | 19.2 | 19.2 ± 4 | 2 to 2.33 | 61.2 | 2.12 | – | 2.33 ± 0.767 h | 105-108% | – | – | – | – | – | underwent extensive 0-glucuronidation | 2 to 3 | 10 to 40 | 1.5 to 2 | 80 |
